Data set [1] has as its target T1, OsGR1 (Oryza sativa, UniProt Q84VC8).
T1 construct: full-length, 6xHis-tag (pCold vector), E. coli Rosetta (DE3), Ni-IDA purified; subunit about 30 kDa on SDS-PAGE
T1 sequence (Q84VC8 1-293): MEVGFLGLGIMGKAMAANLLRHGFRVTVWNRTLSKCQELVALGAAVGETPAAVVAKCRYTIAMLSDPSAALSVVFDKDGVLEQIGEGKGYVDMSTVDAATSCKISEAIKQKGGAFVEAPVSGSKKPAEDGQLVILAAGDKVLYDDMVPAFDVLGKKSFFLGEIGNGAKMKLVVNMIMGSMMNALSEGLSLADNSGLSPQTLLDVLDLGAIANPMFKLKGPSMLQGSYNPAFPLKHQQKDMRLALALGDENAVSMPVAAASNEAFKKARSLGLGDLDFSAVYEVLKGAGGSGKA
Briefly: NAD(P)H oxidation; slopes of reciprocal plots against oxalate. The data set is classed as biochemical. Conditions: read-out: Ki(oxalate) (mM) / Glyoxylate as substrate NADPH as cofactor. From the text:
NAD(P)H oxidation; slopes of reciprocal plots against oxalate on OsGR1

In data set [2] the target is T2, OsGR2 (Oryza sativa, UniProt Q656T5).
T2 construct: gene Os01g0574600; subunit about 37 kDa on SDS-PAGE
T2 sequence (Q656T5 45-341): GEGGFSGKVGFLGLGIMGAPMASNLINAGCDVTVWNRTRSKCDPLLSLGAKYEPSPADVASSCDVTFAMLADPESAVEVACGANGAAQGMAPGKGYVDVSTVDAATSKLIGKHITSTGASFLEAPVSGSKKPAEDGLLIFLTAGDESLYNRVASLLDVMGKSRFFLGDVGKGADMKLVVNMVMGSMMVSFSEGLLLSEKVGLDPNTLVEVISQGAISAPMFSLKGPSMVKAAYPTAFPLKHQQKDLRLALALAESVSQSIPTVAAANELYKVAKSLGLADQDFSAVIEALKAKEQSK
Briefly: NADPH oxidation, Lineweaver-Burk. The data set is classed as biochemical. Conditions: pH 7.4, 30 °C. From the text:
NADPH oxidation, Lineweaver-Burk on OsGR2

The target of data set [3] is T2, OsGR2. As to the kind of experiment: NADH oxidation, Lineweaver-Burk. The data set is classed as biochemical. Conditions: glyoxylate fixed, pH 7.4, 30 °C. From the text:
NADH oxidation, Lineweaver-Burk on OsGR2

Substrate in data set [4]: NC(=O)C1=CN([C@@H]2O[C@H](COP(=O)(O)OP(=O)(O)OC[C@H]3O[C@@H](n4cnc5c(N)ncnc54)[C@H](O)[C@@H]3O)[C@@H](O)[C@H]2O)C=CC1
Briefly: NADH oxidation, Lineweaver-Burk. The data set is classed as biochemical, Oryza sativa. Conditions: glyoxylate fixed, pH 7.4, 30 °C, varied: cofactor. From the text: NADH oxidation, Lineweaver-Burk on OsGR1

Substrate in data set [5]: O=CC(=O)O
Briefly: NADPH oxidation, Lineweaver-Burk. The data set is classed as biochemical, Oryza sativa. Particulars: NADPH fixed, pH 7.4, 30 °C. From the text: (§1) NADPH oxidation, Lineweaver-Burk on OsGR1

Substrate in data set [6]: NC(=O)C1=CN([C@@H]2O[C@H](COP(=O)(O)OP(=O)(O)OC[C@H]3O[C@@H](n4cnc5c(N)ncnc54)[C@H](OP(=O)(O)O)[C@@H]3O)[C@@H](O)[C@H]2O)C=CC1
Briefly: NADPH oxidation, Lineweaver-Burk. The data set is classed as biochemical, Oryza sativa. Particulars: glyoxylate fixed, pH 7.4, 30 °C, varied: cofactor.
Text: as §1

Regarding `O=C(O)C(=O)O` [oxalate], the Ki in data set [1] is 21.2 ± 4.3 mM. Regarding `NC(=O)C1=CN([C@@H]2O[C@H](COP(=O)(O)OP(=O)(O)OC[C@H]3O[C@@H](n4cnc5c(N)ncnc54)[C@H](OP(=O)(O)O)[C@@H]3O)[C@@H](O)[C@H]2O)C=CC1` [NADPH], the Michaelis constant (Km) in data set [2] (glyoxylate fixed) came out at 53 ± 4.6 µM. As for `NC(=O)C1=CN([C@@H]2O[C@H](COP(=O)(O)OP(=O)(O)OC[C@H]3O[C@@H](n4cnc5c(N)ncnc54)[C@H](O)[C@@H]3O)[C@@H](O)[C@H]2O)C=CC1` [NADH], in data set [3], the Km came out at 404 ± 66.5 µM. Consider `O=CC(=O)O` [glyoxylate], for which the Km in data set [2] (NADPH fixed) came out at 72.1 ± 5.3 µM.

B1: OsGR1 (Oryza sativa Japonica Group) (protein)
chain: MEVGFLGLGIMGKAMAANLLRHGFRVTVWNRTLSKCQELVALGAAVGETPAAVVAKCRYTIAMLSDPSAALSVVFDKDGVLEQIGEGKGYVDMSTVDAATSCKISEAIKQKGGAFVEAPVSGSKKPAEDGQLVILAAGDKVLYDDMVPAFDVLGKKSFFLGEIGNGAKMKLVVNMIMGSMMNALSEGLSLADNSGLSPQTLLDVLDLGAIANPMFKLKGPSMLQGSYNPAFPLKHQQKDMRLALALGDENAVSMPVAAASNEAFKKARSLGLGDLDFSAVYEVLKGAGGSGKA
notes: full-length, 6xHis-tag (pCold vector), E. coli Rosetta (DE3), Ni-IDA purified; subunit about 30 kDa on SDS-PAGE
As to B1, the Km in data set [4] was 420.2 ± 50.5 µM; in data set [5] it was 30.4 ± 3.5 µM; in data set [6], 17.6 ± 3.1 µM.

Source of the values: paper PMC7391683, “Two glyoxylate reductase isoforms are functionally redundant but required under high photorespiration conditions in rice” (BMC Plant Biology, 2020).
